Results from patent US10905704B2, “Agents and methods using thereof for the prevention and treatment of stem cell muscle disorders” (ECOLE POLYTECHNIQUE FEDERALE DE LAUSANNE (EPFL), priority 2015, dated 2021).

Legend:
primary MuSCs = test: Respirometry on MuSCs; format: cell-based, C57BL/6J mice; settings: primary MuSCs isolated from NR-treated aged mice
Procedure: Respirometry on MuSCs. Basal and uncoupled oxygen consumption rates (OCRs) were measured using the Seahorse extracellular flux bioanalyzer (XF96, Seahorse Bioscience Inc.). To uncouple mitochondria, 5 uM of FCCP was injected after a basal respiration measurement. All measurements were performed in triplicates and results were normalized to total cell number seeded (primary MuSCs) assessed using a Bradford kit (Bio-Rad).

Endurance running test = format: in vivo, C57BL/6J mice; settings: aged mice, NR diet
Procedure: Endurance running test. Mice were fasted 2 hours before running on a treadmill. The exercise regimen commenced at a speed of 9 cm/s with an inclination of 5 degrees. […] Mice were considered to be exhausted, and removed from the treadmill, following the accumulation of 5 or more shocks (0.1 mA) per minute for two consecutive minutes. The distance traveled and time before exhaustion is registered as maximal running distance and period.

MuSCs = test: Senescence marker staining of MuSCs from Mdx mice (β-galactosidase, γH2AX, cleaved caspase-3); format: cell-based; settings: for senescence by β-galactosidase staining: FIG. 6J
Procedure: β-galactosidase assay. MuSCs were sorted directly and cultured primary MuSCs were grown on 8 chamber slides (Thermo Scientific). Senescence-associated β-galactosidase activity was detected using the senescence β-galactosidase staining kit (Cell signaling), according to manufacturer's instructions. Cardiotoxin-induced muscle damage and Histology as described in Example 2. The following antibodies were used: anti-eMHC (Developmental Studies Hybridoma Bank, DSHB, University of Iowa), anti-Pax7 (DSHB, University of Iowa), anti-γH2AX […] (Millipore) and anti-activated-caspase3 (Cell signaling).

[1] = test system: muscle stem cells (MuSCs); test: MuSC numbers in muscle of NR-fed young and aged mice (FACS, PAX7 staining); format: in vivo, C57BL/6J mice; settings: for MuSC numbers (FACS): NR 400 mg/kg/day in diet for 6 weeks, FIG. 3A-C
Procedure: Animals. Young (1 month old) and aged (20-24 months old) C57BL/6JRj mice, purchased from Janvier Labs, and five weeks old male C57BL/10SnJ mice or C57BL/10ScSn-Dmdmdx/J, purchased from The Jackson Laboratory, were fed with pellets containing vehicle or NR (400 mg/kg/day) for 6-8 weeks. The pellets were prepared by mixing powdered chow diet (D12450B, Research Diets Inc.) with water or with NR dissolved in water. Pellets were dried under a laminar flow hood for 48 hours. All mice were housed in micro-isolator cages in a room illuminated from 7:00 am -7:00 pm with ad libitum access to diet and water. FACS based muscle stem cell isolation. Gastrocnemius, soleus, quadriceps, and tibialis anterior muscles from both limbs were excised and transferred into PBS on ice. All muscles were trimmed, minced and digested with 0.1 mg/ml of type II collagenase (Sigma) in PBS for 15 min at 37° C. Samples were then centrifuged at 750 g for 5 min and further digested in 1 mg/ml of collagenase/dispase (Roche) for 30 mins at 37° C. Muscle slurries were sequentially filtered through 100, 70 and 40 μm cell strainers. The isolated cells were then washed in washing buffer (PBS+2.5% FBS) then resuspended in 200 μl of washing buffer and immediately stained with antibodies, including the MuSC markers CD31 (1:800, eBioscience, eFluor450 conjugated); CD34 (1:200, eBioscience, eFluor660 conjugated); CD45 (1:200, eBioscience, eFluor450 conjugated); CD11b (1:400, eBioscience, eFluor450 conjugated); Sca-1 (1:1000, eBioscience, PE-Cy7 conjugated); and α7 integrin (1:300, MBL) for 30 min at 4° C. Secondary staining was performed with a mixture of goat anti-mouse antibody (1:800, Life technologies, Alexa Fluor 488 conjugated) and propidium Iodide (PI, Sigma) for 15 min at 4° C. in the dark. Stained cells were analysed and sorted using the FACSAria II instrument (BD Biosciences). Debris and dead cells were excluded by forward scatter, side scatter and PI gating. Cells were sorted either directly on slides for immunostaining and into TriPure (Roche) reagent for RNA extraction. Histology. […]

[2] = MuSCs of NR-treated Mdx mice, cultured three generations, FIG. 6K

**Q.** What does the source list for NC(=O)c1ccc[n+]([C@@H]2O[C@H](CO)[C@@H](O)[C@H]2O)c1 [NR, nicotinamide riboside]?
**A.** oxidative respiration (primary MuSCs): trend in oxidative respiration was replicated; maximal running distances (Endurance running test; FIG. 3E): improvements; maximal running times (Endurance running test; FIG. 3F): improvements; senescence by β-galactosidase staining (MuSCs; MuSCs from Mdx mice additionally treated with NR in vitro (6 hours)): further reduction in senescence; senescence by β-galactosidase staining (MuSCs; MuSCs isolated from NR-treated Mdx mice): less prone to senescence; cleaved caspase-3 immunostaining (MuSCs; [2]): attenuation; γH2AX immunostaining (MuSCs; [2]): attenuation; MuSC numbers (FACS) ([1]; aged mice): attenuated the loss of MuSC numbers during aging; MuSC numbers by PAX7 staining of TA muscle ([1]; aged mice, NR diet, FIG. 3D): increase in aged MuSC numbers was confirmed; MuSC numbers (FACS) ([1]; young mice): evoking gains in younger mice
